Test results: patent US20110065783A1, “HYDROXYLATED NEBIVOLOL METABOLITES” (priority 2005, published 2011)

Tests used:
[1] = test system: human umbilical vein endothelial cells (HUVEC); test: Peak NO release from HUVEC after acute treatment (porphyrinic probe); type: cell-based
Procedure: All measurements presented are recorded in vitro using a sensitive porphyrinic probe. NO release is measured directly from human umbilical vein endothelial cells (HUVEC). HUVEC cells were obtained from American Type Culture Collection (Manassas, Va.) and grown in Ham's F12K medium with 2 mM L-glutamine adjusted to contain 1.5 g/l sodium bicarbonate and supplemented with 0.1 mg/ml heparin and 0.03-0.05 mg/ml endothelial cell growth supplement (ECGS)=10% fetal bovine serum. The HUVEC cells were kept in an atmosphere of elevated CO2 concentration (5%). Nebivolol, its enantiomers, and nebivolol metabolites including the nebivolol glucuronides, 4-hydroxy-5′ phenol metabolite, 4-hydroxy-8′-phenol metabolite, 4-hydroxy, 5-hydroxy, 8-hydroxy metabolites, N-DAD, N-DACA and N-DAAA, are obtained from Mylan Laboratories (Morgantown, W. Va.)
All measurements of endothelial NO release are conducted in Hank's balance solution at 37° C. Cell wells are transferred to a Faraday cage and a porphyrinic sensor (diameter 0.5 mm) is positioned at a distance of 5±2 μm from the surface of the endothelial cells using an inverted microscope (Leica Microsystems, Wetzler, Germany) and a computer-assisted micromanipulator. The sensor operates with a three-electrode system: nanosensor (working electrode), saturated calomel electrode (reference electrode) and platinum wire (counter electrode, 0.5 mm diameter). The three electrodes are connected to a potentiostat/galvanostat PAR273. The baseline is stabilized after about 20 seconds. The test compounds are injected with a nanoinjector on to the surface of the cells following solubilization in buffer. The current proportional to the NO concentration is measured with the sensor, which operates in amperometric mode at a constant potential of 0.63V. Data are acquired with the use of an IBM computer with custom software and amperograms (current vs. time curves) and are recorded with a Guniry FAS1 Femtostat (Warminster, Pa.).
Nanosensors are prepared from carbon fibers. The size of the tip of carbon fiber is reduced from 6 μm to less than 1 μm by temperature controlled burning. The sensors are sensitized to NO by deposition of electrically conductive polymeric porphyrin and covered with a thin layer of Nafion. The prophyrinic microsensor has a response time of 0.1 ms at a micromolar NO concentration and 10 ms at the detection limit of 1 nM.
The nanosensor for NO is calibrated using saturated solution (concentration 1.82 mM verified with the coulometric method). Linear calibration curves are constructed for each sensor from […] before and after measurements of cell activity. The data are presented as the mean±SEM for each of the triplicate measurements. The data (calculation and plotting) are transferred to Microcal Origin Software (OriginLab Corp., Northampton, Mass.).
The HUVEC preparation is stable over the course of these experiments with the cells remaining viable in culture for >24 hours. Under non-stimulating conditions, basal levels of NO release are very low (<30 nM). Measurement of NO release as a function of treatment is conducted in individual endothelial cells. Multiple measurements of NO release can be conducted on single cells following a brief refractory period. For robust statistical analysis, separate cells are used for each concentration and type of drug used in these analyses.

[2] = test system: HUVECs isolated from White and Black American donors; test: Acute NO release from endothelial cells of White and Black American donors (electrochemical nanosensors); type: cell-based, human; conditions: for NO (nM), Black Donors, acute NO release / NO (nM), White Donors, acute NO release: acute drug treatment 1.0 μM, mean±S.D. (n=5); for NO (nM), Black Donors, acute NO release: HUVECs from Black American donors; for NO (nM), White Donors, acute NO release: HUVECs from White donors
Source text: Values are mean±S.D. (n=5).
The 4′(R)-hydroxy-5-fluoro-l-nebivolol metabolite also exceeds the activity of nebivolol and even l-nebivolol by >50%. These findings indicate that hydroxy metabolites of nebivolol have distinct and highly reproducible effects on acute NO release in human endothelial cells.
In Table 1 and FIG. 7, the comparative effects of nebivolol, d-nebivolol, l-nebivolol and six stereoselective hydroxy metabolites on NO release are shown for cells harvested from white (open bars) and black American (solid bars) donors. The release of the NO from these endothelial cells was evaluated with electrochemical nanosensors placed within close proximity to the cell surface. […] The 4′(R)-hydroxy-5-fluoro-l-nebivolol metabolite (1689-64B) also exceeds the activity of l-nebivolol by >50%. The metabolite with the least activity is similar to nebivolol. These findings indicate that hydroxy metabolites of nebivolol have distinct and highly reproducible effects on acute NO release in human endothelial cells.

[3] = test system: human endothelial cells; test: Capacity for NO release in human endothelial cells following chronic administration; type: cell-based

SMILES | NO (nM), Black Donors, acute NO release [2] | NO (nM), White Donors, acute NO release [2] | further results
OC(CNCC(O)C1CCc2cc(F)ccc2O1)C1CCc2cc(F)ccc2O1 (racemic) [nebivolol] | 148 ± 10 nM | 218 ± 11 nM | NO peak release ([1]; 5 μM, acute, FIG. 4): ~225 nm
Oc1cc2c(cc1F)OC(C(O)CNCC(O)C1C[C@H](O)c3cc(F)ccc3O1)CC2 (stereo partly drawn) [4 (S)-Hydroxy-7′-fluoro-6′-hydroxy-l-nebivolol] | 242 ± 12 nM | 272 ± 12 nM | –
OC(CNCC(O)C1C[C@H](O)c2cc(F)ccc2O1)C1CCc2cc(F)ccc2O1 (stereo partly drawn) [4(S)-Hydroxy-l-nebivolol] | 151 ± 8 nM | 204 ± 12 nM | –
OC1CC(C(O)CNCC(O)C2CCc3cc(F)ccc3O2)Oc2ccc(F)cc21 (stereo not drawn) [4-hydroxy nebivolol] | – | – | NO release compared with reference agents (in words) ([1]; 5 μM, acute, FIG. 4): approximates values measured with acetylcholine; peak NO release ([1]; 5 μM, acute, FIG. 4): exceeds 400 nM; NO release from human endothelial cells, concentration dependence (in words) ([1]; acute administration): increase NO release from human endothelial cell in concentration dependent fashion; EC50 ([1]; acute, concentration-response, FIG. 6): 500 nM; capacity for NO release following chronic administration (in words) [3]: increase the capacity for NO release
Oc1ccc2c(c1F)CCC(C(O)CNCC(O)C1C[C@@H](O)c3cc(F)ccc3O1)O2 (stereo partly drawn) [4′(R)-Hydroxy-5-fluoro-6-hydroxy-l-nebivolol] | 316 ± 17 nM | 407 ± 27 nM | NO release activity in excess of l-nebivolol ([2]; acute treatment, compared with l-nebivolol (b247 also nebivolol)): > 50%
Oc1cc2c(cc1F)OC(C(O)CNCC(O)C1C[C@@H](O)c3cc(F)ccc3O1)CC2 (stereo partly drawn) [4′(R)-Hydroxy-7-fluoro-6-hydroxy-l-nebivolol] | 383 ± 18 nM | 476 ± 20 nM | NO release, black donors ([2]; acute treatment, endothelial cells from black donors): 383 ± 18 nmol/L; NO release, white donors ([2]; acute treatment, endothelial cells from white donors): 476 ± 20 nmol/L; increase in NO release as compared to nebivolol ([2]; acute treatment, white and black donors): nearly two-fold increase
OC(CNCC(O)C1C[C@@H](O)c2cc(F)ccc2O1)C1CCc2cc(F)ccc2O1 (stereo partly drawn) [4′(R)-Hydroxy-l-nebivolol] | 194 ± 10 nM | 237 ± 11 nM | –
Oc1ccc2c(c1F)CCC(C(O)CNCC(O)C1CCc3cc(F)ccc3O1)O2 (stereo not drawn) [5-fluoro-6-hydroxy-l-nebivolol] | 212 ± 9 nM | 258 ± 20 nM | –
Oc1c(F)ccc2c1CCC(C(O)CNCC(O)C1CCc3cc(F)ccc3O1)O2 (stereo not drawn) [5-hydroxy nebivolol] | – | – | peak NO release ([1]; 10 μM, acute, FIG. 3): approximately 220 nM
Oc1cc(F)cc2c1OC(C(O)CNCC(O)C1CCc3cc(F)ccc3O1)CC2 (stereo not drawn) [8-hydroxy nebivolol] | – | – | peak NO release ([1]; 10 μM, acute, FIG. 3): approximately 220 nM
O[C@H](CNC[C@@H](O)[C@H]1CCc2cc(F)ccc2O1)[C@@H]1CCc2cc(F)ccc2O1 [d-nebivolol, reference compound] | 87 ± 6 nM | 127 ± 17 nM | –
O[C@@H](CNC[C@H](O)[C@H]1CCc2cc(F)ccc2O1)[C@@H]1CCc2cc(F)ccc2O1 [l-nebivolol, reference compound] | 192 ± 9 nM | 268 ± 12 nM | –
